For data set [1], the target named is Recombinant human MALT1/MLT protein (Homo sapiens (Human), UniProt Q9UDY8). The data set is described as follows: Inhibitory effect on MALT1 enzyme activity (Ac-LRSR-AMC substrate, fluorescence 460 nm). The class given is biochemical. The note with it: 10 nM FL MALT1, Ac-LRSR-AMC substrate, 50 min pre-incubation, 4 h reaction. The method, then:
Ac-LRSR-AMC was used as the substrate to test the IC50 of the inhibitory activity of compounds on MALT1 enzyme activity at their Km concentration.
Ac-LRSR-AMC was used as the substrate which was digested by MALT1 to produce products, which produced fluorescence that could be detected at 460 nm. The highest concentration of the compound detected was 1000 nM, 3-fold dilution, a total of 11 concentrations (1000 nM-0.017 nM). The reaction system is 10 nM FL MALT1 protein, […] Ac-LRSR-AMC, 50 mM Tris pH 7.5, 0.6M Citrate, 1 mM DTT, 1 mM EDTA, 0.05% BSA and 1.5% DMSO. The compound and the enzyme were pre-incubated at room temperature for 50 min. The substrate was then added and the reaction was carried out for 4 h.
The original data (460 nm reading) was calculated according to the following formula to obtain the inhibition rate.
(§1) Log(inhibitor) vs. response—Variable slope (four parameters) in GraphPad Prism 6 was used to perform fitting equation analysis on compound concentration and corresponding inhibition rate, the curve was fit and compound IC50 value was obtained.
(§2) The fitting calculation equation is Y=Bottom+(Top−Bottom)/(1+10^((Log IC50−X)*HillSlope))

The nature of data set [2]: Pharmacokinetics of oral administration in Balb/C mice. The class given is in vivo. The arrangement: Cmax: unit: ng/mL. The settings on record: 30 mg/kg, P.O., plasma. The method, then: Balb/C mice were used as test animals to study the pharmacokinetic behavior of the compound in the plasma of mice after oral administration at a dose of 30 mg/kg.
3 Balb/C mice (3/example), male, from Shanghai Jiesijie Experimental Animal Co., Ltd., animal production license number (SCXK (Shanghai) 2013-0006 N0.311620400001794).
3 Balb/C mice, male; p.o. respectively at a dose of 30 mg/kg and an administration volume of 10 mL/kg after the mice were fasted overnight.
Before and after administration of mice, 0.1 mL of blood was collected from the orbit at 0, 0.5, 1, 2, 4, 6, 8 and 24 h, and placed in EDTA-K2 test tubes, which was centrifuged at 6000 rpm at 4° C. for 6 min to separate plasma which was stored at −80° C.
• 1) 160 μL of acetonitrile was added to 40 μL of plasma sample for precipitation, and same was mixed and centrifuged at 3500×g for 5 to 20 min. • 2) 100 μL of the treated supernatant solution was taken and subjected to LC/MS/MS to analyze the concentrations of the test compounds.
• Liquid phase conditions: Shimadzu LC-20AD pump • Mass spectrometry conditions: AB Sciex API 4000 mass spectrometer • Chromatographic column: Phenomenex Gemiu 5 um C18 50×4.6 mm • Mobile phase: liquid A is 0.1% aqueous formic acid solution, liquid B is acetonitrile • flow rate: 0.8 mL/min • Elution time: 0-4.0 min, the eluent is as follows:
The main pharmacokinetic parameters were calculated using WinNonlin 8.2.

The target of data set [3] is MALT1 protease activity in TMD8 cells (substrate BCL-10) (Homo sapiens (Human), UniProt Q9UDY8). The data set is described as follows: Intracellular MALT1 protease activity detection (BCL-10 ELISA in TMD8 cells). The class given is cell-based. The note with it: undigested BCL-10 by ELISA, 30 min compound then 2 h stimulation cocktail, read-out: Bcl10 TMD8 IC50. On the procedure: By detecting the digestion level of the substrate BCL-10 by MALT1 in TMD8 cells, the inhibitory effect of the compound on MALT1 protease activity in the cellular environment was tested.
The ELISA sandwich method was used to detect the content of undigested BCL-10 protein in cells and determine the inhibitory effect of compounds on intracellular MALT1 protease activity. The highest concentration of the compound detected was 10000 nM, 3-fold dilution, a total of 9 concentrations (10000 nM-1.5 nM). Cells were plated at an appropriate density. Compounds of corresponding concentrations were first added for action for 30 min, and then eBioscience cell stimulation cocktail was added to stimulate the cells for 2 h. Cell lysate was then collected. The cell lysate was added to the assay plate previously coated with recombinant BCL-10 antibody (Abcam, #Ab33905) and incubated at 4° C. overnight. The next day, BCL-10 detection antibody (Santacruz, #Sc-5273HRP) was added and incubated for 2 h, TMB substrate was used for color development for about 30 min, then the color development was terminated, and a microplate reader was used for detection.
2) Curve fitting: Log(inhibitor) vs. response—Variable slope (four parameters) in GraphPad Prism 6 was used to perform fitting equation analysis on compound concentration and corresponding inhibition rate, the curve was fit and compound IC50 value was obtained.
as §2
(An ELISA detects its analyte on a solid surface through an enzyme-linked reagent.)

The nature of data set [4]: Caco-2 bidirectional permeability test. The note with it: human, Caco-2.
Method: (§3) The purpose of this experiment is to test the bidirectional permeability of the compound through the Caco-2 cell model and evaluate whether the compound is transported by efflux transporters.
(§4) Liquid chromatography-mass spectrometer, centrifuge, vortexer, pipette, 96-well test plate (HTS Transwell Plate), acetonitrile solution containing internal standard, Caco-2 cells (ATCC), Hank's balance solution (HBSS), fluorescent yellow (LY), dimethyl sulfoxide (DMSO).
(§5) 108 μL of transport buffer (HBSS containing 10 μM of the example compound) was added to the administration end of A to B. • b. 300 μL of transport buffer (HBSS containing DMSO) was added to the receiving end of A to B. • c. 300 μL of transport buffer (HBSS containing 10 μM example compound) was added to the administration end of A to B. • d. 108 μL of transport buffer (HBSS containing DMSO) was added to the receiving end of A to B. • e. incubation was performed for 90 min. • d. a sample was taken, processed and detected with mass spectrometry.
(§6) • Instruments: Liquid Chromatography; • Chromatographic column: Waters XSelect HSS T3 2.5 μm (2.1×50 mm); • Mobile phase: Phase A: 0.1% formic acid in pure water; Phase B: 0.1% formic acid in acetonitrile.
(§7) • Instruments: AP16500+liquid chromatography-mass spectrometer; • The ion source is electrospray ionization source (ESI); • The detection method is positive ion detection;
(§8) The scanning method is selected reaction monitoring (MRM).
The next data set concerns OCI-Ly3 cells. The experiment in a line: Inhibition of proliferation of OCI-Ly3 cells (CellTiter-Glo). It counts as cell-based, human. The note with it: 96 h incubation, read-out: Inhibition test of proliferation of OCI-Ly3 cells IC50. On the procedure: The compound's inhibitory effect on the proliferation of TMD8 and OCI-Ly3 cells was evaluated through cell proliferation inhibition experiments.
The compound's inhibitory effect on the proliferation of TMD8 and OCI-Ly3 cells was detected by the CellTiter-Glo method. The highest concentration of the compound detected was 1000 nM, 3-fold dilution, a total of 9 concentrations (1000 nM-0.15 nM). After the cells were plated at an appropriate density, compounds were added the next day and incubated for 96 h before detection using the CellTiter-Glo Luminescent detection kit.
as §1, §2
For orientation: In ATP-based viability assays light output follows the ATP content of the culture.

Setting [5] is: male, mouse, po, read-out: AUC 0-t.
Setting [6] is: male, mouse, po, read-out: Cmax.
Where [7] appears, read: male, mouse, po, read-out: Tmax.

Like-named read-outs stand apart in the source and are kept apart here.

What is called AUC(0-t) is exposure summed from dosing to a finite time, without extrapolation to infinity. What is called Cmax is the maximum level reached in the sampled fluid or tissue. As a reminder, the MRT is a mean duration of stay, worked out from the concentration-time curve. For orientation: Tmax means the time from dosing to the highest level. A word on the AUC(0-inf): it is total exposure, with the tail of the curve extrapolated. The term half-life denotes how long it takes for the measured level to halve. In general, Papp A→B refers to how fast a substance crosses the layer from the apical side. What is called Papp B→A is the apparent permeability from the basolateral to the apical side of a cell layer. By efflux ratio is commonly meant a quotient of directional permeabilities that is used to spot active efflux.

Recombinant human MALT1/MLT protein, sequence (Q9UDY8 whole entry): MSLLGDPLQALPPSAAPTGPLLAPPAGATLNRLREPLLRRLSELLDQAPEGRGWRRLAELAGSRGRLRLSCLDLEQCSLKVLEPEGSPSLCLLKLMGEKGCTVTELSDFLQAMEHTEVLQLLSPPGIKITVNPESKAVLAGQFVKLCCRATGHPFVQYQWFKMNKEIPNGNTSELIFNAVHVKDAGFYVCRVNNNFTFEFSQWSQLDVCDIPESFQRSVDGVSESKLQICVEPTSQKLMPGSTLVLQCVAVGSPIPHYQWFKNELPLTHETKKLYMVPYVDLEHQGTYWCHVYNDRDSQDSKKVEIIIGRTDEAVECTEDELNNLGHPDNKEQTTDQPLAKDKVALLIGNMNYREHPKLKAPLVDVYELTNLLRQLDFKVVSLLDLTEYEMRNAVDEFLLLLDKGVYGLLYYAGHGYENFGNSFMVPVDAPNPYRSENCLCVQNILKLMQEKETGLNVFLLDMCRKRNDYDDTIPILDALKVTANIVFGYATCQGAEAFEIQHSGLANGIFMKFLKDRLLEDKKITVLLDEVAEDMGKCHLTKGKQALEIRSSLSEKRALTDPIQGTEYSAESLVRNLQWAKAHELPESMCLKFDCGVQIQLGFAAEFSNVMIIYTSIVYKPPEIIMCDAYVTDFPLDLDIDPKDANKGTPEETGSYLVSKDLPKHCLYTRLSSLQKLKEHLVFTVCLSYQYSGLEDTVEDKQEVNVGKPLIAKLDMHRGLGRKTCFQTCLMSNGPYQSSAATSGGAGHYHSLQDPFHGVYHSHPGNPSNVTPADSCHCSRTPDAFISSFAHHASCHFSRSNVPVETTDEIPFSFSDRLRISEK
MALT1 protease activity in TMD8 cells (substrate BCL-10), sequence (Q9UDY8 whole entry): as above
Method for Caco-2 cells: as §3, §4, §5, §6, §7, §8

For `O=C(Nc1ccnc(C(F)(F)F)c1)c1cnn(-c2ccc3c4c(cccc24)C(=O)N3)c1C(F)(F)F` [Example 3], in data set [1], the IC50 was found to be 105 nM. In addition, in data set [2], the “AUC0-∞” value was 341,390 ng/mL*hr, the exposure AUC(0-t) is 330,088 ng/mL*h, the Cmax is 23,733 ng/mL and the mean residence time (MRT) came out at 7.4 h. Further, in data set [2], the T1/2 was determined as 4.7 h and the Tmax is 4.0 h. For the same compound, in data set [3], the IC50 is 83 nM. For the same compound, in the data set on Caco-2 cells (Caco-2), the “Papp A − B” value is reported as 1.57 10^−6 cm · s^−1 and the “Papp B − A” value was 10.24 10^−6 cm · s^−1. In the data set with Caco-2 cells (human, Caco-2, 90 min, 10 μM), the “Papp(B − A)/Papp(A − B)” value is listed as 6.52.
For the compound `O=C(Nc1cnc(-n2nccn2)c(Cl)c1)c1cnn(-c2ccc3c4c(cccc24)C(=O)N3)c1C(F)(F)F` [Example 5, N-(6-(2H-1,2,3-triazol-2-yl)-5-chloropyridin-3-yl)-1-(2-oxo-1,2-dihydrobenzo[cd]indol-6-yl)-5-trifluoromethyl-1H-pyrazole-4-carboxamide], the IC50 in data set [1] stood at 15 nM. In data set [2] (male, mouse, po), this compound had an AUC(0-inf) of 64100 ng·h/mL and a half-life of 2.1 h. The AUC(0-t) in data set [2] (setting [5]) is 64100 ng·h/mL. Besides, in data set [2] (setting [6]), the Cmax came out at 7180 ng/mL. For the same compound, the MRT in data set [2] (male, mouse, po, read-out: MRT) is 5.2 h. The Tmax in data set [2] (setting [7]) was 2 h. Also, in data set [3], the IC50 was determined as 36 nM. For the same compound, in data set [4], the Papp A→B at 90 min, 10 µM is 1 ×10⁻⁶ cm/s; the Papp B→A at 90 min, 10 µM is 7.03 ×10⁻⁶ cm/s; the efflux ratio at 90 min, 10 µM came out at 7.09. The IC50 with OCI-Ly3 cells (Homo sapiens) is 120 nM.
Regarding `O=C(Nc1cnc(-n2nccn2)c(C(F)F)c1)c1cnn(-c2ccc3c4c(cccc24)C(=O)N3)c1C(F)(F)F` [Example 49, N-(5-difluoromethyl-6-(2H-1,2,3-triazol-2-yl)-pyridin-3-yl)-1-(2-oxo-1,2-dihydrobenzo[cd]indol-6-yl)-5-trifluoromethyl-1H-pyrazole-4-carboxamide], the values for the IC50 (in data set [1]; in data set [3]; in the data set on OCI-Ly3 cells (Homo sapiens)) were 28 nM, 73 nM and 97 nM, respectively. The AUC(0-inf) in data set [2] (male, mouse, po) stood at 105000 ng·h/mL. In data set [2] (male, mouse, po), the half-life was 2.1 h. Besides, in data set [2] (setting [5]), the AUC(0-t) stood at 105000 ng·h/mL. Also, in data set [2] (setting [6]), the Cmax was determined as 15300 ng/mL. In addition, the MRT in data set [2] (male, mouse, po, read-out: MRT) is 4.3 h. The Tmax in data set [2] (setting [7]) was determined as 2 h.
For `O=C(Nc1ccc(-n2nccn2)c(Cl)c1)c1cnn(-c2cnc3c4c(cccc24)C(=O)N3)c1C(F)(F)F` [Example 75, N-(3-chloro-4-(2H-1,2,3-triazol-2-yl)phenyl)-1-(2-carbonyl-1,2-dihydropyrrolo[4,3,2-ij]isoquinolin-6-yl)-5-(trifluoromethyl)-1H-pyrazole-4-carboxamide], in data set [2] (male, mouse, po), the AUC(0-inf) is 12200 ng·h/mL and the half-life was 3 h. Besides, the AUC(0-t) in data set [2] (setting [5]) stood at 12200 ng·h/mL. Moreover, in data set [2] (setting [6]), the maximum concentration (Cmax) amounted to 1290 ng/mL. Further, in data set [2] (male, mouse, po, read-out: MRT), the MRT was 5.5 h. Moreover, the Tmax in data set [2] (setting [7]) came out at 2 h. Further, in data set [3], the IC50 was 83 nM. For the same compound, the IC50 in the data set on OCI-Ly3 cells (Homo sapiens) is 213 nM.
Take `O=C(Nc1cnc(-n2nccn2)c(C(F)(F)F)c1)c1cnn(-c2cnc3c4c(cccc24)C(=O)N3)c1C(F)(F)F` [Example 68]: the IC50 in data set [1] was found to be 51 nM. Moreover, in data set [2], the “AUC0-∞” value is recorded as 10,388 ng/mL*hr, the exposure AUC(0-t) was 10,168 ng/mL*h, the Cmax is recorded as 2,670 ng/mL and the MRT was found to be 2.6 h. In data set [2], the T1/2 was found to be 1.2 h and the Tmax was 0.5 h. Moreover, in data set [3], the IC50 was 72 nM. For the same compound, in the data set with OCI-Ly3 cells, the IC50 worked out at 271 nM.
Take `O=C(Nc1cc(Cl)n2ncc(Cl)c2c1)c1cnn(-c2ccc3c4c(cccc24)C(=O)N3)c1C(F)(F)F` [Example 13, N-(3,7-dichloropyrazolo[1,5-a]pyridin-5-yl)-1-(2-oxo-1,2-dihydrobenzo[cd]indol-6-yl)-5-trifluoromethyl-1H-pyrazole-4-carboxamide]: in data set [1], the IC50 is 107 nM. In data set [2] (male, mouse, po), this compound had an AUC(0-inf) of 67800 ng·h/mL and a half-life of 6.2 h. Besides, the AUC(0-t) in data set [2] (setting [5]) is 62700 ng·h/mL. Further, the peak concentration (Cmax) in data set [2] (setting [6]) worked out at 4380 ng/mL. For the same compound, the mean residence time MRT in data set [2] (male, mouse, po, read-out: MRT) came out at 9.4 h. Moreover, the Tmax in data set [2] (setting [7]) came out at 4 h. Besides, in data set [4], the Papp A→B at 90 min, 10 µM was 7.63 ×10⁻⁶ cm/s; the apparent permeability from basolateral to apical (Papp B→A) at 90 min, 10 µM was 19.1 ×10⁻⁶ cm/s; the efflux ratio at 90 min, 10 µM was determined as 2.5. Besides, the IC50 with OCI-Ly3 cells (Homo sapiens) amounted to 272 nM.
Turning to `O=C(Nc1ccc(-n2nccn2)c(Cl)c1)c1cnn(-c2ccc3c4c(cccc24)C(=O)N3)c1C1CC1` [Example 63, N-(3-chloro-4-(2H-1,2,3-triazol-2-yl)phenyl)-5-cyclopropyl-1-(2-oxo-1,2-dihydrobenzo[cd]indol-6-yl)-1H-pyrazole-4-carboxamide], the IC50 is 28 nM in data set [1], 58 nM in data set [3] and 154 nM in the data set on OCI-Ly3 cells (Homo sapiens).
On to `O=C(Nc1cnc(-n2nccn2)c(C(F)(F)F)c1)c1cnn(-c2ccc3c4c(cccc24)C(=O)N3)c1C1CC1` [Example 56, N-(6-(2H-1,2,3-triazol-2-yl)-5-(trifluoromethyl)pyridin-3-yl)-5-cyclopropyl-1-(2-oxo-1,2-dihydrobenzo[cd]indol-6-yl)-1H-pyrazole-4-carboxamide], for which the figures for the IC50 (in data set [1]; in data set [3]; with OCI-Ly3 cells (Homo sapiens)) were 31 nM, 93 nM and 152 nM, respectively.
In the case of `Cc1ncn(-c2ncc(NC(=O)c3cnn(-c4ccc5c6c(cccc46)C(=O)N5)c3C(F)(F)F)cc2Cl)n1` [Example 46], the results for the IC50 (in data set [1]; in data set [3]; in the data set with OCI-Ly3 cells) were 93 nM, 80 nM and 222 nM, respectively.
Turning to `O=C(Nc1cnc(-n2nccn2)c(Cl)c1)c1cnn(-c2ccc3c4c(cccc24)C(=O)N3)c1C1CC1` [Example 60, N-(5-chloro-6-(2H-1,2,3-triazol-2-yl)-pyridin-3-yl)-5-cyclopropyl-1-(2-oxo-1,2-dihydrobenzo[cd]indol-6-yl)-1H-pyrazole-4-carboxamide], the IC50 amounted to 16 nM in data set [1], 57 nM in data set [3] and 132 nM in the data set with OCI-Ly3 cells (Homo sapiens).

Values taken from patent publication US20250059196A1 (SHANGHAI HANSOH BIOMEDICAL CO., LTD., priority 2021, published 2025).
